For one assay, the system named is plasma cytokines. Description: Plasma cytokines in uninfected (sham infected) mice. Type of assay: in vivo, BALB/c mice. The settings on record: single i.p. 1.25 mg/kg. On the procedure: EDTA-anticoagulated blood was collected aseptically by terminal cardiac puncture and analyzed for complete blood cell count using an Element HT5 hematology analyzer (Heska). Blood plasma and clarified peritoneal lavage were prepared by two-step centrifugation described previously. Plasma cytokine levels were quantified using a mouse-specific MILLIPLEX MAP kit (Millipore Cat# MCYTMAG-70K) as described.
Supplemental Fig. 3. Transient stimulation of cytokines by MTD12813. Sham infected mice were injected i.p with PBS and treated i.p. 1 h later with 1.25 mg/kg MTD12813 (M) or saline (S). Four or 24 h post sham infection, animals were euthanized and plasma samples quantified by multiplex cytokine analysis. P values calculated using ANOVA with Uncorrected Fisher’s LSD comparing saline and […]

The test system of assay [1] is Kp-1705. The assay is described as follows: Antibacterial activity of peptide-containing peritoneal fluid. The settings on record: Kp-1705 incubated in PF containing 7.5 µg/ml peptide, 1 h, 37 °C, CFU plating. Type of assay: cell-based, K. pneumoniae. The procedure:
(§1) Cryopreserved Kp-1705 was suspended in PBS to a density of ca. 1 × 10^9 CFU/ml, and incubated with saline or 1.25 µg/ml MTD12813 at room temperature for 1 h. Mice (n = 26) were then infected i.p. with 500 µl of saline- or MTD12813- pretreated Kp-1705, and a third cohort (n = 12) received 500 µl i.p. of 1.25 µg/ml MTD12813 immediately following infection with saline treated Kp-1705. Five mice from each cohort were euthanized 4 h p.i., and peritoneal lavage was collected for bacterial burden determination and cytospin preparation. In vitro antibacterial activity of MTD12813 (1.25 μg/ml) -treated cells (1 h; 37 °C) was determined by plating saline or peptide treated cells on TSA plates. Growth kinetics of saline and MTD12813-treated cells was determined by diluting samples from the 1 h incubation mixtures 1:40 into TSB and monitoring growth (620 nm) for 5.5 h at 37 °C. Antibacterial activity of MTD12813 in PF was determined by i.p. injection of naïve male BALB/c mice (n = 5 per group) with 1.25 mg/kg of MTD12813 or saline i.p. (10 ml/kg). […] Peritoneal fluid was clarified by centrifugation at 1200×g and an aliquot used to quantify MTD12813 by LC–MS/MS, as described above. Antimicrobial activity was determined by incubating PF (9:1 vol/vol) with Kp-1705 at a final density of 3 × 10^7 CFU/ml. […]

Assay [2] relates to Kp-1705. The assay is described as follows: Challenge with MTD12813-preincubated Kp-1705, survival. Type of assay: in vivo, BALB/c mice. The procedure: as §1
Assay [3] deals with Kp-1705. Description: Viability and replication fitness of Kp-1705 at sub-MIC peptide. Type of assay: cell-based, K. pneumoniae. The conditions noted are these: Kp-1705 (1 x 10^9 CFU/ml), 1 h with 1.25 µg/ml MTD12813; CFU on TSA, growth at A620. The procedure: as §1
replication fitness of Kp-1705. […] (a) Bacterial viability was quantified as CFU on TSA plates. […]

The nature of assay [4]: LPS neutralization, limulus amebocyte lysate assay. Type of assay: biochemical. The conditions noted are these: 0.5 EU/ml LPS, 0.078–5 μg/ml, 37 °C, 30 min; data not shown. The procedure:
A limulus amebocyte lysate endotoxin detection assay (Pierce A39553) protocol was employed by preincubating 0.5 EU/ml of LPS with either MTD12813, RTD-1, or colistin (0.078–5 μg/ml) in H20 at 37 °C for 30 min followed by quantifying free LPS per manufacturer’s instructions. All samples were compared to a LPS standard curve to determine the degree of LPS neutralization.

1 molecule from PMC8648872, “A host-directed macrocyclic peptide therapeutic for MDR gram negative bacterial infections” (Scientific Reports, 2021) can be followed below.

Entries after “also recorded” stand apart in the source; their conditions may differ. Where a SMILES comes first, the peptide text is derived from it. Bridges are numbered along the chain shown (N, C = ends).

`CC[C@H](C)[C@@H]1NC(=O)[C@@H]2CSSC[C@H](NC(=O)[C@H]([C@@H](C)CC)NC(=O)[C@@H]3CSSC[C@H](NC1=O)C(=O)N[C@@H](C(C)C)C(=O)NCC(=O)N[C@@H](CCCNC(=N)N)C(=O)NCC(=O)N3)C(=O)N[C@@H](C(C)C)C(=O)N[C@@H](CCCNC(=N)N)C(=O)N[C@@H](CCCNC(=N)N)C(=O)N[C@@H](CCCNC(=N)N)C(=O)N2` [MTD12813] (cyclo(CICVGRGCICVRRR); disulfide 1-10, 3-8): the “plasma IL-5, IL-6 and CXCL1 versus vehicle” value with plasma cytokines (4 h collection point) was “significantly elevated”. For the same molecule, in the assay with plasma cytokines (24 h), the “plasma IL-5, IL-6 and CXCL1” value is reported as “returned to baseline”. Also, the “bacterial killing in peritoneal fluid containing peptide” value in the assay with Kp-1705 [1] was “no bacterial killing was observed; also recorded: no bactericidal activity”. Besides, the “survival, equal quantity of peptide given immediately following infection” value in the assay with Kp-1705 [2] (0.5 ml of 1.25 µg/ml i.p. after saline-preincubated Kp-1705, n = 12) is listed as “no statistically significant protection”. For the same molecule, the “survival after challenge with preincubated bacteria” value in the assay on Kp-1705 [2] (Kp-1705 preincubated 1 h with 1.25 µg/ml MTD12813, 500 µl i.p., n = 26) is recorded as “protected”. Also, the “bacterial viability and replication fitness” value with Kp-1705 [3] is “no effect on bacterial viability or replication fitness”. Moreover, the “LPS inhibition (neutralization)” value in assay [4] is reported as “No LPS inhibition”.
